Experimental data from patent US8217069B2, “Nitrogenated fused ring derivative, pharmaceutical composition comprising the same, and use of the same for medical purposes” (Kissei Pharmaceutical Co., Ltd., priority 2007, dated 2012).
pIC50: −log10 of the molar value.

The compounds below were run against T1, human GnRH receptor1 (GnRHR1) (Homo sapiens, UniProt P30968) (assay: Assay of inhibitory effect for the change of calcium levels in GnRH-stimulated cells (hGnRHR1#1 HEK293 cells, FLIPR Calcium Assay Kit)). Details: drug concentration at which 50% GnRH-stimulated intracellular calcium flux was inhibited, 10 nM GnRH.
T1 construct: expressed in transfected cells
T1 sequence (P30968 1-328): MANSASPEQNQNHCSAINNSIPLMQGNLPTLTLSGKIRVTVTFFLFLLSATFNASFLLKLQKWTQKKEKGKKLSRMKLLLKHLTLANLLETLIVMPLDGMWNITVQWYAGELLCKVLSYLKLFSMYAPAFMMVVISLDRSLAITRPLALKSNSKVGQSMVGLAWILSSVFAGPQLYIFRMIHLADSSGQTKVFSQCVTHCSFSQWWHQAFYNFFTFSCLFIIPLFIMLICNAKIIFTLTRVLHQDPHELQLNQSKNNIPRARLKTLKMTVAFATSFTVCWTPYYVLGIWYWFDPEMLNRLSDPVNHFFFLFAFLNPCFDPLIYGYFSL
Format: cell-based
Description: 1) Cloning and Construction of the Vector Expressing Human GnRH Receptor1 (GnRHR1)
Using cDNA derived from human pituitary (BECTON DICKINSON) as a template, the DNA fragment coding 45 to 1115 bp of human GnRHR1 (Accession No. L03380), which was reported by Kakar et al., was amplified by PCR method and inserted into the multi-cloning site of pcDNA3.1(+) (Invitrogen). The DNA sequence inserted was perfectly matched to the previously reported sequence.
2) Establishment of Cell Line Stably Expressing Human GnRH Receptor1 HEK293 Cells
The expression vector of human GnRHR1 gene, was digested by XhoI into a linear DNA. The linear DNA was transfected into HEK293 cells by means of lipofection (Lipofectamine-2000: Invitrogen). Neomycin resistant cell lines were selected by culture in the medium containing G418 (Invitrogen) at 1 mg/mL, and then the change of calcium levels in GnRH-stimulated cells was measured by the method described below.
3) Assay of Inhibitory Effect for the Change of Calcium Levels in GnRH-Stimulated Cells
Antagonizing effect of compounds for human GnRHR1 was evaluated by depression of calcium levels in GnRH-stimulated cells. hGnRHR1#1 cells were seeded into a 96-well culture plate at a density of 1.5×10^5 cells/well and cultured for a day. After removing the culture medium, cells were washed with 200 μL per well of the washing buffer (Hanks' Balanced Salt Solutions, 20 mM N-2-hydroxyethylpiperazine-N′-2-ethanesulfonic acid, 1.3 mM calcium chloride, 0.5 mM magnesium chloride, 0.4 mM magnesium sulfate). One hundred μL of the Ca^2+ sensitive dye solution (FLIPR Calcium Assay Kit, Molecular Devices) was added to the well, and the cells were incubated for 1 hour at 37° C. in 5% CO2 incubator. Then, intracellular calcium levels were determined under the following condition by using FLEX STATION (Molecular Devices). In the equipment, which was warmed to 37° C., 50 μL of test compound diluted with the measurement buffer (the washing buffer with 0.1% Albumin bovine serum) was added to the well. After 1 minute, 50 μL of 10 nM GnRH was added to the well. The drug concentration, at which 50% GnRH-stimulated intracellular calcium flux was inhibited (IC50 value), was calculated using logit plot (Table 106).

SMILES | pIC50
CC(C)(c1ccccc1)S(=O)(=O)c1ccc(Cl)c(-n2c(=O)[nH]c3ccc(C(=O)O)nc32)c1 [Example 35] | 6.71
COc1cc(F)c(-n2c(=O)[nH]c3c(C)cc(C(=O)O)nc32)cc1SC(C)(C)c1ccccc1Cl [Example 109] | 7.44
Cc1cc(CO)nc2c1[nH]c(=O)n2-c1cc(S(=O)(=O)N2CCCCc3ccccc32)ccc1Cl [Example 152, 3-[2-Chloro-5-(2,3,4,5-tetrahydro-1H-1-benzoazepin-1-ylsulfonyl)phenyl]-5-hydroxymethyl-7-methyl-1,3-dihydro-2H-imidazo[4,5-b]pyridin-2-one] | 7.49
Cc1cc(/C(N)=N/O)nc2c1[nH]c(=O)n2-c1cc(S(=O)(=O)N2CCCCc3ccccc32)ccc1Cl [Example 160, 3-[2-Chloro-5-(2,3,4,5-tetrahydro-1H-1-benzoazepin-1-ylsulfonyl)phenyl]-5-hydroxycarbamimidoyl-7-methyl-1,3-dihydro-2H-imidazo[4,5-b]pyridin-2-one] | 7.00
COc1ccccc1N(C)S(=O)(=O)c1ccc(Cl)c(-n2c(=O)[nH]c3c(OC)ncnc32)c1 [Example 199] | 7.34
COc1cccc(F)c1COc1cc(-n2c(=O)[nH]c3c(OC)nc(CF)nc32)c(Cl)cc1OCCO [Example 251] | 7.27
COc1ncnc2c1[nH]c(=O)n2-c1cc(OCc2c(OCCNC(C)=O)ccc(F)c2F)ccc1Cl [Example 262] | 7.21
COc1ccc(F)c(F)c1COc1cc(-n2c(=O)[nH]c3c(OC)nc(CF)nc32)c(Cl)cc1OCC(=O)NCCO [Example 341] | 7.49
CNC(=O)COc1cc(Cl)c(-n2c(=O)[nH]c3c(OC)nc(C(C)=O)nc32)cc1OCc1c(OC)ccc(F)c1F [Example 346] | 7.42
COc1cc(Cl)c(-n2c(=O)[nH]c3c(C)nc(N)nc32)cc1OCc1c(OC)ccc(F)c1F [Example 381, 2-Amino-9-[2-chloro-5-(2,3-difluoro-6-methoxybenzyloxy)-4-methoxyphenyl]-6-methyl-7,9-dihydro-8H-purin-8-one] | 7.44

Next, values leading:

pIC50 | SMILES
7.57 | COc1cc(Cl)c(-n2c(=O)[nH]c3c(OC)ncnc32)cc1OCc1c(OC)ccc(F)c1F [Example 39]
7.49 | COc1ccc(F)c(F)c1CN(C(C)=O)c1ccc(Cl)c(-n2c(=O)[nH]c3c(C)cc(C(=O)O)nc32)c1 [Example 81]
7.70 | Cc1cc(C(=O)O)nc2c1[nH]c(=O)n2-c1cc(S(=O)(=O)N2CCCCc3ccccc32)ccc1F [Example 93]
7.62 | COc1cccc(F)c1C(C)(C)S(=O)(=O)c1ccc(Cl)c(-n2c(=O)[nH]c3c(C)cc(C(=O)O)nc32)c1 [Example 128]
7.82 | COc1cccc(F)c1COc1cc(-n2c(=O)[nH]c3c(OC)nc(CO)nc32)c(Cl)cc1OCC(=O)O [Example 274]
7.64 | COc1cc(Cl)c(-n2c(=O)[nH]c3c(OC)nc(CCO)nc32)cc1OCc1c(F)cccc1OC [Example 314, 9-[2-Chloro-5-(2-fluoro-6-methoxybenzyloxy)-4-methoxyphenyl]-2-(2-hydroxyethyl)-6-methoxy-7,9-dihydro-8H-purin-8-one]
7.77 | COc1ccc(F)c(F)c1COc1cc(-n2c(=O)[nH]c3c(OC)nc(C(F)F)nc32)c(Cl)cc1OCC(=O)N(C)C [Example 345]
7.72 | CCNC(=O)COc1cc(Cl)c(-n2c(=O)[nH]c3c(C(C)=O)nc(C)nc32)cc1OCc1c(F)cccc1OC [Example 452]
